*: point of attachment. Myristoyl = CCCCCCCCCCCCCC(=O)*

Assay [1] deals with ERK1/2 nuclear translocation. The assay is described as follows: Determination of ERK1/2 localization by fluorescence microscopy after TPA stimulation. Conditions: 10 μM, TPA 100 nM, 15 minutes. It is filed as cell-based. On the procedure: Determination of Protein Localization by Fluorescence Microscopy:
Indicated cells were seeded on coverslips (coated with 0.001% w/v poly-L-lysine or not, depending on the cell line) at 50% confluency. After the indicated treatment, cells were fixed in 4% paraformaldehyde/PBS for 20 minutes on an ice surface, permeabilized with 0.1% Triton X-100/PBS for 5 minutes at 23° C., then blocked in 2% BSA/PBS for 30 minutes at 23° C. The fixed cells were sequentially incubated with appropriate antibodies (in 2% BSA/PBS, 1.5 hour), washed 3 times with PBS^−/−, and followed by incubation with either Cy-2-conjugated or rhodamine-conjugated secondary antibodies (1:200) and with DAPI ([…]; 1:100) in 2% BSA/PBS for 45 minutes. Slides were analyzed and photographed by a fluorescence microscope (Olympus BX51, ×40). Background correction, and contrast adjustment of raw data images were performed using Photoshop (Adobe, CA, USA).
The effect of Z56 was compared with that of the inhibitory effect of EPE peptide on nuclear translocation of ERK1/2.
The effects of the compounds on ERK1/2 nuclear translocation were evaluated in three cell lines (HeLa cells and two melanoma cell lines, A2185 and A2352), by treating the cells with each compound for two hours, and determining nuclear translocation using fluorescent anti-ERK antibodies, according to procedures described hereinabove.

The subject of assay [2] is HeLa, A2352, A2185, LOX-IMVI, A4132, A2024, MDA-MB-231, PC3, A2058 and MCF7 cells. The assay is described as follows: Viability assay (methylene blue), ten cancer cell lines. To be noted: 10 μM, 72 hours, 1% FCS. It is filed as cell-based. The procedure:
Ten cancer cell lines were treated with either EPE peptide (10 μM; middle bars) or Compound Z56 (3 μM; right bars) or DMSO control (0.1%; left bars) in 1% FCS (fetal calf serum) for 72 hours.
A3252 and A2058 cells were treated either with EPE peptide (10 μM), Z56 (1, 3 or 10 μM) or DMSO control (0.1%). The graphs present the kinetics of cell proliferation at the indicated times. Viable cells were quantified by staining with methylene blue. All results were presented as a fold change of the initial cell number and represent averages ±SE of 3 experiments in triplicate.
Cells were seeded at low confluence into 24, 48 or 96-well plates in complete medium. After 24 hours, medium was replaced by 1% FCS (fetal calf serum) containing appropriate treatments. Fresh medium containing the same agents was replaced every day. After 72 or 96 hours of treatment, cells were fixed with 4% formaldehyde overnight at 23° C., washed once with 0.1 M borate buffer (pH 8.5) for 10 minutes, and stained with of 1% methylene blue in 0.1 M borate buffer (pH 8.5) for 30 minutes. Excess stain was washed out with distilled water. Color was extracted by adding 0.1 M HCl (3 hours, 23° C.), and absorbance measured at 595 nm in an ELISA reader. For time course experiments, attached cells were fixed and measured at 0, 24, 48, 72 and 96 hours. […]

Assay [3] concerns Panc-1, AsPC-1, CFPAC-1, MIA PaCa-2, Capan-1, Capan-2 and BxPC-3 pancreatic cancer cells. Nature of the assay: Viability assay (methylene blue), pancreatic cancer cell lines. The assay is classed as cell-based. Conditions: 10 μM, 72 hours. On the procedure: FIGS. 6A and 6B present data showing that Compound Z56 prevents proliferation of pancreatic cancer cells. […] Panc-1, AsPC-1, CFPAC-1, Mia PaCa-2, Capan-1, Capan-2 (Ras-transformed) and BxPC-3 (Ras-wild type) pancreatic cancer cells were treated with either EPE peptide (10 μM; middle bars) or Z56 (3 μM; right bars) or DMSO control (0.1%; left bars) in 1% FCS for 72 hours. […] Panc-1, AsPC-1, BxPC-3 and Mia PaCa-2 cells grown in 1% FCS medium containing either EPE peptide (10 μM), 56 (3 μM), PLX4032 (1 μM), PD184352 (5 μM) or DMSO control (0.1%). The graphs present the kinetics of cell proliferation at the indicated times after the treatment started. Quantification of all viable cells was done by methylene blue and repeated 3 times in triplicates. All results presented as a fold change of the initial cell number and represent averages ±SE.
Cells were seeded at low confluence into 24, 48 or 96-well plates in complete medium. After 24 hours, medium was replaced by 1% FCS (fetal calf serum) containing appropriate treatments. Fresh medium containing the same agents was replaced every day. After 72 or 96 hours of treatment, cells were fixed with 4% formaldehyde overnight at 23° C., washed once with 0.1 M borate buffer (pH 8.5) for 10 minutes, and stained with of 1% methylene blue in 0.1 M borate buffer (pH 8.5) for 30 minutes. Excess stain was washed out with distilled water. Color was extracted by adding 0.1 M HCl (3 hours, 23° C.), and absorbance measured at 595 nm in an ELISA reader. For time course experiments, attached cells were fixed and measured at 0, 24, 48, 72 and 96 hours. For dose-response experiments, cells were treated with indicated concentrations of reagent, fixed and stained after 72 hours as above.
Activating mutations in Ras are found in more than 95% of pancreatic cancers where signaling through both Raf and Akt pathway drives cancer progression [Campbell et al., Cancer Res 2007, 67:2098-2106]. However, no effective treatments that target this mutant protein have reached the clinic to date, and pancreatic ductal adenocarcinoma remains an almost universally fatal disease [Bryant et al., Trends Biochem Sci 2014, 39:91-100]. Therefore, treating these pancreatic cancer cells downstream of Ras, without overactivating the Akt pathway, should be at least partially beneficial. The effect of Compound Z56 (and EPE peptide) on cell viability of Ras-transformed (and Ras-wild type) pancreatic cancer cells was determined, using a variety of cell lines.
The effects of Compound Z56 on the viability of pancreatic cancer cell lines at various times after treatment was compared with those of PLX4032 (a B-Raf inhibitor) and PD184352 (a MEK1/2 inhibitor).

Another assay deals with PC3 cells. The assay is described as follows: Dose-response analysis, PC3 cells. It is filed as cell-based. To be noted: 10 μM, 72 hours. The procedure: (§1) FIG. 15A presents dose response curves of compounds C17, D3, D11 and D14 on 8 cancer cells. Five melanoma cell lines (A2185, A2352, A2024, A2058 and LOX-IMVI), HeLa, HCT-116 and PC3 cells were grown in 1% FCS media containing either DMSO (0.1%), EPE peptide (10 μM), or Compounds C17, D3, D11, D14 at the indicated concentrations, for 72 hours. Viable cells were quantified by staining with methylene blue. Data presented as percentage of DMSO control ±SE of triplicates. […] IC50 values were calculated by interpolation in the curves in FIG. 15A. […] Bar graphs represent average viability respect to DMSO control ±SE of triplicates.
(§2) Cell Viability (IC50) Assay:
(§3) Cells were seeded at a density of 4000 cells per well into 96-well plates in complete medium. After 24 hours, medium was replaced by 1% FCS (fetal calf serum) containing appropriate treatments. Fresh medium containing the same agents was replaced every day. After 96 hours, cell viability was assessed using the CellTiter-Glo reagent (Promega; Madison, WI). IC50 values were determined using GraphPad Prism.

The test system of the next assay is A2058 cells. The assay is described as follows: Dose-response analysis, A2058 cells. To be noted: 10 μM. It is filed as cell-based. On the procedure: as §1, §2, §3
Assay [4] relates to BRAF-mutant, NRAS-mutant and NF1-mutant melanomas. Conditions: Arafeh et al., Sci Rep 2017; cited from earlier work.
The target of assay [5] is interaction of importin7 and ERK1/2 (Homo sapiens, UniProt O95373). Conditions: Plotnikov et al., Nat Commun 2015; cited from earlier work.
Sequence of interaction of importin7 and ERK1/2 (O95373 whole entry): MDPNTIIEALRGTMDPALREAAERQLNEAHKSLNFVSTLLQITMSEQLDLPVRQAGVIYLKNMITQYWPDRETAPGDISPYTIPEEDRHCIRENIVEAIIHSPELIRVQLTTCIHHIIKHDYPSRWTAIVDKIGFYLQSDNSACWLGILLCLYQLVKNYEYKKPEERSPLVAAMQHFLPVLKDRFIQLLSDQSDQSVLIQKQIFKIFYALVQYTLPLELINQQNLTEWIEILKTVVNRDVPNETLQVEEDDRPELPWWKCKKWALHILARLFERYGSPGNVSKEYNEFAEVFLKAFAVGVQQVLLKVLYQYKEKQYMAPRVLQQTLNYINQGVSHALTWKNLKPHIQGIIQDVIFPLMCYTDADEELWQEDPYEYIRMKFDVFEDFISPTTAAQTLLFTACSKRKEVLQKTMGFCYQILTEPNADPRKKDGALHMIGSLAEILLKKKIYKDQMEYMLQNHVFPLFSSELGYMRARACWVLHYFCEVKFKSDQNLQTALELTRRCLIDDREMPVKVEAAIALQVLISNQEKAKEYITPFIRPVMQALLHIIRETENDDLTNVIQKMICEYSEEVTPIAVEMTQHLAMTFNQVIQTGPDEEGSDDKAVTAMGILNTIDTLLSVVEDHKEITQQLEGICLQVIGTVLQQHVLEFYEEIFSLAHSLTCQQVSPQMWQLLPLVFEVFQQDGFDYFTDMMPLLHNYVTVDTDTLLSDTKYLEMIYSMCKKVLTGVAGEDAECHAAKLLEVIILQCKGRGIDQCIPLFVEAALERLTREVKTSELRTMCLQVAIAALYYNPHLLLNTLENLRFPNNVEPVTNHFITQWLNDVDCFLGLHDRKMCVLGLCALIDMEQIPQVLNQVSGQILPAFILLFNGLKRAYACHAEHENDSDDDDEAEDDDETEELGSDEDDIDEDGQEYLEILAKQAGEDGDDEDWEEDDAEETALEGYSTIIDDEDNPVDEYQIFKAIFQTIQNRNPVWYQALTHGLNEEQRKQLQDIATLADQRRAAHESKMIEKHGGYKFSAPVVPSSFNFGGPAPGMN

“EPE peptide: peptide GQLNHILGILGEPEQEDL (SEQ ID NO: 1) conjugated at N-terminus to myristic acid and C-terminal amidated (Myristoyl-GQLNHILGILGEPEQEDL-NH2; SMILES CCCCCCCCCCCCCC(=O)NCC(=O)N[C@@H](CCC(N)=O)C(=O)N[C@@H](CC(C)C)C(=O)N[C@@H](CC(N)=O)C(=O)N[C@@H](Cc1c[nH]cn1)C(=O)N[C@H](C(=O)N[C@@H](CC(C)C)C(=O)NCC(=O)N[C@H](C(=O)N[C@@H](CC(C)C)C(=O)NCC(=O)N[C@@H](CCC(=O)O)C(=O)N1CCC[C@H]1C(=O)N[C@@H](CCC(=O)O)C(=O)N[C@@H](CCC(N)=O)C(=O)N[C@@H](CCC(=O)O)C(=O)N[C@@H](CC(=O)O)C(=O)N[C@@H](CC(C)C)C(N)=O)[C@@H](C)CC)[C@@H](C)CC) [reference compound]”: the “degree of ERK1/2 nuclear localization induced by TPA (percentage of cells with nuclear ERK1/2 staining)” value in assay [1] (2 hours pretreatment, MCF7, A2352, HB2 and HeLa cells) was “phenotype similar to the basal state”. Also, the “nuclear accumulation of ERK1/2 upon TPA stimulation” value in assay [1] (2 hours, A2185 and A2352 cells) was “inhibited”. Moreover, the “proliferation of PC3, A2058 and MCF7 cells” value in assay [2] was “not significantly affected”. In assay [2] (HeLa, A2352, A2185, LOX-IMVI, A4132, Z2024, MDA-MB-231), the “apoptosis / proliferation of EPE-sensitive cell lines” value is given as “induced apoptosis”. Besides, the proliferation/viability result in assay [3] (4 Ras-transformed pancreatic cell lines other than Panc-1 and AsPC-1) is on record as “no major effect”. Further, in assay [3] (Ras-wild type BxPC-3 cells), the “reduction of cell proliferation relative to control” value is on record as 50%. In addition, in assay [3] (only 2 of the 7 tested cell lines (Panc-1 and AsPC-1)), the “cell viability and apoptosis” value is “reduced cell viability and induced apoptosis”. Further, the “viability of PC3 cells” value with PC3 cells is “only a very modest effect”. For the same substance, the “viability of BRAF melanoma cells A2058” value in the assay with A2058 cells is reported as “lack of effect”. Moreover, in assay [4], the “combination with the MEK inhibitor trametinib, viability of NRAS-mutant melanomas” value is reported as “exhibited synergy”; the “viability of BRAF-mutant, NRAS-mutant and NF1-mutant melanomas” value is reported as “significantly reduced the viability”. Besides, the “interaction of importin7 and ERK1/2 and nuclear translocation of ERK1/2” value in assay [5] is “blocks the interaction of importin7 and ERK1/2”.

(Values after patent publication US12286439B2, “Inhibitors of ERK nuclear translocation” (Yeda Research and Development Co. Ltd., priority 2018, dated 2025).)
